Data reported in the NIST ThermoML archive (doi:10.1021/acs.jced.8b00854).
Several values for one entry are separate records, joined by “and”; a condition that tells them apart may be missing. Identical values can stand only once. Numbers after ± are expanded uncertainties.

How the values were obtained:
[1] = refractive index (Na D-line) (dimensionless); conditions: 100 kPa, Liquid, Standard Abbe refractometry
[2] = 100 kPa, Liquid, Vibrating tube method
[3] = xn = mol fraction of the nth substance listed; conditions: 100 kPa, Liquid, Vibrating tube method, x2 = 0
[4] = refractive index (Na D-line) (dimensionless); xn = mol fraction of the nth substance listed; conditions: 100 kPa, Liquid, Standard Abbe refractometry, x2 = 0

## O [water]
[1]; 293.15 K
  refractive index: 1.3335 ± 0.0016
[1]; 303.15 K
  refractive index: 1.3315 ± 0.0016
[1]; 313.15 K
  refractive index: 1.3305 ± 0.0016
[1]; 323.15 K
  refractive index: 1.329 ± 0.0016
[1]; 333.15 K
  refractive index: 1.3275 ± 0.0016
[1]; 343.15 K
  refractive index: 1.326 ± 0.0016
[2]; 323.15 K
  mass density: 988.04 ± 2 kg/m3
[2]; 333.15 K
  mass density: 981.56 ± 2 kg/m3 and 988.04 ± 2 kg/m3
[2]; 343.15 K
  mass density: 972.75 ± 2 kg/m3

## O [water] + CCCCCCCCOS(=O)(=O)[O-].CCCCn1cc[n+](C)c1
[3]; 323.15 K
  mass density: 988.04 ± 2 kg/m3
[3]; 333.15 K
  mass density: 981.56 ± 2 kg/m3
[3]; 343.15 K
  mass density: 972.75 ± 2 kg/m3
[4]; 293.15 K
  refractive index: 1.3335 ± 0.0016
[4]; 303.15 K
  refractive index: 1.3315 ± 0.0016
[4]; 313.15 K
  refractive index: 1.3305 ± 0.0016
[4]; 323.15 K
  refractive index: 1.329 ± 0.0016
[4]; 333.15 K
  refractive index: 1.3275 ± 0.0016
[4]; 343.15 K
  refractive index: 1.326 ± 0.0016

## O [water] + CCCCCCCC[n+]1ccn(C)c1.F[B-](F)(F)F
[3]; 323.15 K
  mass density: 988.04 ± 2 kg/m3
[3]; 333.15 K
  mass density: 988.04 ± 2 kg/m3
[3]; 343.15 K
  mass density: 972.75 ± 2 kg/m3
[4]; 293.15 K
  refractive index: 1.3335 ± 0.0016
[4]; 303.15 K
  refractive index: 1.3315 ± 0.0016
[4]; 313.15 K
  refractive index: 1.3305 ± 0.0016
[4]; 323.15 K
  refractive index: 1.329 ± 0.0016
[4]; 333.15 K
  refractive index: 1.3275 ± 0.0016
[4]; 343.15 K
  refractive index: 1.326 ± 0.0016

## O [water] + CCCCCCn1cc[n+](C)c1.F[B-](F)(F)F
[3]; 323.15 K
  mass density: 988.04 ± 2 kg/m3
[3]; 333.15 K
  mass density: 981.56 ± 2 kg/m3
[3]; 343.15 K
  mass density: 972.75 ± 2 kg/m3
[4]; 293.15 K
  refractive index: 1.3335 ± 0.0016
[4]; 303.15 K
  refractive index: 1.3315 ± 0.0016
[4]; 313.15 K
  refractive index: 1.3305 ± 0.0016
[4]; 323.15 K
  refractive index: 1.329 ± 0.0016
[4]; 333.15 K
  refractive index: 1.3275 ± 0.0016
[4]; 343.15 K
  refractive index: 1.326 ± 0.0016

## O [water] + CCCCn1cc[n+](C)c1.F[B-](F)(F)F
[3]; 323.15 K
  mass density: 988.04 ± 2 kg/m3
[3]; 333.15 K
  mass density: 981.56 ± 2 kg/m3
[3]; 343.15 K
  mass density: 972.75 ± 2 kg/m3
[4]; 293.15 K
  refractive index: 1.3335 ± 0.0016
[4]; 303.15 K
  refractive index: 1.3315 ± 0.0016
[4]; 313.15 K
  refractive index: 1.3305 ± 0.0016
[4]; 323.15 K
  refractive index: 1.329 ± 0.0016
[4]; 333.15 K
  refractive index: 1.3275 ± 0.0016
[4]; 343.15 K
  refractive index: 1.326 ± 0.0016

## O [water] + CCCCn1cc[n+](C)c1.O=S(=O)([O-])C(F)(F)F
[3]; 323.15 K
  mass density: 988.04 ± 2 kg/m3
[3]; 333.15 K
  mass density: 981.56 ± 2 kg/m3
[3]; 343.15 K
  mass density: 972.75 ± 2 kg/m3
[4]; 293.15 K
  refractive index: 1.3335 ± 0.0016
[4]; 303.15 K
  refractive index: 1.3315 ± 0.0016
[4]; 313.15 K
  refractive index: 1.3305 ± 0.0016
[4]; 323.15 K
  refractive index: 1.329 ± 0.0016
[4]; 333.15 K
  refractive index: 1.3275 ± 0.0016
[4]; 343.15 K
  refractive index: 1.326 ± 0.0016

## O [water] + CCn1cc[n+](C)c1.F[B-](F)(F)F
[3]; 323.15 K
  mass density: 988.04 ± 2 kg/m3
[3]; 333.15 K
  mass density: 981.56 ± 2 kg/m3
[3]; 343.15 K
  mass density: 972.75 ± 2 kg/m3
[4]; 293.15 K
  refractive index: 1.3335 ± 0.0016
[4]; 303.15 K
  refractive index: 1.3315 ± 0.0016
[4]; 313.15 K
  refractive index: 1.3305 ± 0.0016
[4]; 323.15 K
  refractive index: 1.329 ± 0.0016
[4]; 333.15 K
  refractive index: 1.3275 ± 0.0016
[4]; 343.15 K
  refractive index: 1.326 ± 0.0016

## O [water] + CCn1cc[n+](C)c1.O=S(=O)([O-])C(F)(F)F
[3]; 323.15 K
  mass density: 988.04 ± 2 kg/m3
[3]; 333.15 K
  mass density: 981.56 ± 2 kg/m3
[3]; 343.15 K
  mass density: 972.75 ± 2 kg/m3
[4]; 293.15 K
  refractive index: 1.3335 ± 0.0016
[4]; 303.15 K
  refractive index: 1.3315 ± 0.0016
[4]; 313.15 K
  refractive index: 1.3305 ± 0.0016
[4]; 323.15 K
  refractive index: 1.329 ± 0.0016
[4]; 333.15 K
  refractive index: 1.3275 ± 0.0016
[4]; 343.15 K
  refractive index: 1.326 ± 0.0016
